Here are results for 19 molecules from PubChem BioAssay AID248 (DTP/NCI, 2004).

In the assay the test system is L1210 leukemia ip in BDF1 mice, survival T/C. Briefly: NCI In Vivo Anticancer Drug Screen. Data for tumor model L1210 Leukemia (intraperitoneal) in B6D2F1 (BDF1) mice. Conditions: endpoint: mean survival time, higher = longer survival. In a few lines: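 Transplanted-tumor mice were given test agent; controls received vehicle only. Survival readings from the two groups were divided (treated over control).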

Setting [1] is: dose: 100.0 mg/kg/injection, schedule: Q04DX003 (ip), vehicle: Klucel (hydroxypropylcellulose) (HPC).
[2] abbreviates: dose: 200.0 mg/kg/injection, schedule: Q04DX003 (ip), vehicle: Klucel (hydroxypropylcellulose) (HPC).
The mark [3] stands for this setting: dose: 100.0 mg/kg/injection, schedule: Q01DX001 (ip), vehicle: carboxymethylcellulose (CMC).
Setting [4] is: dose: 200.0 mg/kg/injection, schedule: Q01DX001 (ip), vehicle: carboxymethylcellulose (CMC).
[5] abbreviates: dose: 100.0 mg/kg/injection, schedule: Q01DX001 (ip), vehicle: saline.
[6] abbreviates: dose: 200.0 mg/kg/injection, schedule: Q01DX001 (ip), vehicle: saline.
The mark [7] stands for this setting: dose: 400.0 mg/kg/injection, schedule: Q01DX001 (ip), vehicle: saline.
Setting [8] is: dose: 50.0 mg/kg/injection, schedule: Q01DX009 (ip), vehicle: saline.
The mark [9] stands for this setting: dose: 100.0 mg/kg/injection, schedule: Q01DX009 (ip), vehicle: saline.
Setting [10] is: dose: 100.0 mg/kg/injection, schedule: Q04DX003 (ip), vehicle: saline with Tween-80.
The mark [11] stands for this setting: dose: 200.0 mg/kg/injection, schedule: Q01DX009 (ip), vehicle: saline.
The mark [12] stands for this setting: dose: 200.0 mg/kg/injection, schedule: Q04DX003 (ip), vehicle: saline with Tween-80.
Setting [13] is: dose: 400.0 mg/kg/injection, schedule: Q04DX003 (ip), vehicle: saline with Tween-80.
[14] abbreviates: dose: 150.0 mg/kg/injection, schedule: Q01DX001 (ip), vehicle: other.

SMILES strings stand for the structures. Where “and” joins values, the source holds several entries; their conditions need not be identical. Equal values may be shown once. Toxic doses and inconclusive results are not listed.

`O=C(O)c1ccccc1N=Cc1ccc[nH]1`: the T/C by setting is: (dose: 100.0 mg/kg/injection, schedule: Q04DX002 (ip), vehicle: Klucel (hydroxypropylcellulose) (HPC)) 115 % of control; (dose: 200.0 mg/kg/injection, schedule: Q04DX002 (ip), vehicle: Klucel (hydroxypropylcellulose) (HPC)) 100 % of control; (dose: 400.0 mg/kg/injection, schedule: Q04DX002 (ip), vehicle: Klucel (hydroxypropylcellulose) (HPC)) 96 % of control.

As for `O=C(O)c1cc(C(=O)c2ccccn2)c2cccc(C(F)(F)F)c2n1`, the T/C is 98 % of control (dose: 50.0 mg/kg/injection, schedule: Q01DX009 (ip), vehicle: Klucel (hydroxypropylcellulose) (HPC)); 95 % of control (dose: 100.0 mg/kg/injection, schedule: Q01DX009 (ip), vehicle: Klucel (hydroxypropylcellulose) (HPC)); 97 % of control under setting [1]; 93 % of control (dose: 200.0 mg/kg/injection, schedule: Q01DX009 (ip), vehicle: Klucel (hydroxypropylcellulose) (HPC)); 97 % of control under setting [2].

As for `O=P(NO)(Oc1ccccc1)Oc1ccccc1`, the T/C (dose: 50.0 mg/kg/injection, schedule: Q01DX001 (ip), vehicle: carboxymethylcellulose (CMC)) was 101 % of control; the T/C under setting [3] is 95 % of control; the T/C under setting [4] is 100 % of control.

Take `O=C1CCC(=O)N1CCc1csc2ccccc12`: the T/C reads like this: under setting [3], 110 % of control; (dose: 177.6 mg/kg/injection, schedule: Q01DX001 (ip), vehicle: carboxymethylcellulose (CMC)) 95 % of control and 92 % of control; under setting [4], 96 % of control; (dose: 266.8 mg/kg/injection, schedule: Q01DX001 (ip), vehicle: carboxymethylcellulose (CMC)) 93 % of control and 94 % of control; (dose: 600.0 mg/kg/injection, schedule: Q01DX001 (ip), vehicle: carboxymethylcellulose (CMC)) 101 % of control and 91 % of control.

As to `Cn1ncc2c1NC(c1ccc(F)cc1)SCC2=O` (configuration not stated), the T/C (dose: 400.0 mg/kg/injection, schedule: Q01DX009 (ip), vehicle: gum acacia) is 108 % of control.

Take `O=C(O)CCC(=O)Nc1ccccc1CC(c1c[nH]c2ccccc12)c1c[nH]c2ccccc12`: the T/C (dose: 50.0 mg/kg/injection, schedule: Q01DX001 (ip), vehicle: saline) was 106 % of control; the T/C under setting [5] is 104 % of control; the T/C under setting [6] was 106 % of control; the T/C under setting [7] is 104 % of control.

For `CC(=Nc1ccc(NC(=O)c2ccc(C(=O)Nc3ccc(N=C(C)Nc4ccccc4)cc3)cc2)cc1)Nc1ccccc1`, the T/C is 93 % of control (dose: 15.0 mg/kg/injection, schedule: Q01DX Z (ip), vehicle: saline); 92 % of control (dose: 30.0 mg/kg/injection, schedule: Q01DX Z (ip), vehicle: saline); 97 % of control (dose: 60.0 mg/kg/injection, schedule: Q01DX Z (ip), vehicle: saline); 93 % of control (dose: 120.0 mg/kg/injection, schedule: Q01DX Z (ip), vehicle: saline).

`O=C(NC1CCCC2C(NC(=O)c3ccccc3)CCCC12)c1ccccc1` (configuration not stated): the T/C is 91 % of control under setting [5]; 89 % of control (dose: 100.0 mg/kg/injection, schedule: Q01DX009 (ip), vehicle: saline with Tween-80); 92 % of control (dose: 100.0 mg/kg/injection, schedule: Q04DX003 (ip), vehicle: saline); 91 % of control under setting [6]; 89 % of control (dose: 200.0 mg/kg/injection, schedule: Q01DX009 (ip), vehicle: saline with Tween-80); 91 % of control (dose: 200.0 mg/kg/injection, schedule: Q04DX003 (ip), vehicle: saline). Also, the T/C is 94 % of control under setting [7]; 95 % of control (dose: 400.0 mg/kg/injection, schedule: Q01DX009 (ip), vehicle: saline with Tween-80); 86 % of control (dose: 400.0 mg/kg/injection, schedule: Q04DX003 (ip), vehicle: saline).

On to `CC12NC(=O)NC1(C)NC(=O)N2` (configuration not stated), for which the T/C runs as follows: (dose: 25.0 mg/kg/injection, schedule: Q01DX009 (ip), vehicle: saline) 89 % of control; under setting [8], 95 % of control; under setting [9], 96 % of control and 89 % of control; under setting [10], 96 % of control; under setting [11], 100 % of control; under setting [12], 102 % of control. For the same molecule, under setting [13], the T/C is 96 % of control.

Take `CCOCCC=O`: the T/C reads like this: under setting [8], 97 % of control; under setting [9], 91 % of control; under setting [11], 91 % of control.

With `CCOc1cc(-c2nc(-c3ccc(N=Cc4ccc(N(CCCOS(C)(=O)=O)CCCOS(C)(=O)=O)cc4C)cc3)cs2)ccc1OCc1ccccc1`, the T/C runs as follows: under setting [10], 91 % of control; under setting [12], 86 % of control; under setting [13], 89 % of control.

For the molecule `Clc1ccnc(SCc2ccccc2)n1`, the T/C runs as follows: (dose: 100.0 mg/kg/injection, schedule: Q01DX Z (ip), vehicle: methylcellulose (MC)) 91 % of control; (dose: 200.0 mg/kg/injection, schedule: Q01DX Z (ip), vehicle: methylcellulose (MC)) 104 % of control.

Consider `Cn1nc(Br)c(=O)n(C(c2ccccc2)c2ccccc2)c1=O`, for which the T/C is 110 % of control (dose: 22.0 mg/kg/injection, schedule: Q01DX015 (ip), vehicle: other); 103 % of control (dose: 33.0 mg/kg/injection, schedule: Q01DX015 (ip), vehicle: other); 100 % of control (dose: 44.0 mg/kg/injection, schedule: Q01DX001 (ip), vehicle: other); 103 % of control (dose: 50.0 mg/kg/injection, schedule: Q01DX015 (ip), vehicle: other); 102 % of control and 108 % of control (dose: 66.0 mg/kg/injection, schedule: Q01DX001 (ip), vehicle: other); 106 % of control (dose: 75.0 mg/kg/injection, schedule: Q01DX015 (ip), vehicle: other). Further, the T/C is 100 % of control and 104 % of control under setting [14]; 154 % of control (dose: 200.0 mg/kg/injection, schedule: Q01DX001 (ip), vehicle: other); 154 % of control (dose: 400.0 mg/kg/injection, schedule: Q01DX001 (ip), vehicle: other).

`ClC1=NC(Cl)C(Cl)=N/C1=N\c1ncn[nH]1` (configuration not stated): the T/C is 103 % of control (dose: 6.25 mg/kg/injection, schedule: Q01DX009 (ip), vehicle: saline with Tween-80); 97 % of control (dose: 12.5 mg/kg/injection, schedule: Q01DX009 (ip), vehicle: saline with Tween-80); 105 % of control (dose: 25.0 mg/kg/injection, schedule: Q01DX009 (ip), vehicle: saline with Tween-80); 87 % of control (dose: 31.25 mg/kg/injection, schedule: Q01DX009 (ip), vehicle: saline with Tween-80).

As for `CC(=O)N(N=O)c1ccc(Cl)cc1[N+](=O)[O-]`, the T/C runs as follows: under setting [8], 101 % of control; under setting [9], 104 % of control.

On to `CC#N.CC#N.[Cl][Pt][Cl]`, for which the T/C (dose: 6.25 mg/kg/injection, schedule: Q04DX003 (ip), vehicle: water) was 119 % of control; the T/C (dose: 12.5 mg/kg/injection, schedule: Q04DX003 (ip), vehicle: water) was 117 % of control; the T/C (dose: 25.0 mg/kg/injection, schedule: Q04DX003 (ip), vehicle: water) is 122 % of control; the T/C (dose: 50.0 mg/kg/injection, schedule: Q04DX003 (ip), vehicle: water) is 118 % of control.

In the case of `CCOC(=O)c1cnc(C)nc1NCc1ccco1`, the T/C is, setting by setting: under setting [1], 103 % of control; under setting [2], 95 % of control; (dose: 400.0 mg/kg/injection, schedule: Q04DX003 (ip), vehicle: Klucel (hydroxypropylcellulose) (HPC)) 98 % of control.

As for `O=S(=O)(O)SCCCNCCCCCCCCNCCCSS(=O)(=O)O`, the T/C runs as follows: under setting [10], 101 % of control; under setting [12], 92 % of control; under setting [13], 88 % of control.

Take `COC1OC(COC(=O)OCC(Cl)(Cl)Cl)C(OC(=O)OCC(Cl)(Cl)Cl)C(OC(=O)OCC(Cl)(Cl)Cl)C1OC(=O)OCC(Cl)(Cl)Cl` (configuration not stated): the T/C by setting is: (dose: 75.0 mg/kg/injection, schedule: Q01DX001 (ip), vehicle: other) 90 % of control; under setting [14], 92 % of control; (dose: 300.0 mg/kg/injection, schedule: Q01DX001 (ip), vehicle: other) 90 % of control.
